Earlier results on 1 substance are cited in paper PMC12246617, “Cryo-EM structures reveal the PP2A–B55α and Eya3 interaction that can be disrupted by a peptide inhibitor” (The Journal of Biological Chemistry, 2025).

What is called IC50 is the point on the concentration scale where inhibition reaches its midpoint.

The test system of this series is PP2A–B55. Conditions: 6,8-difluoro-4-methylumbelliferyl phosphate substrate; 30 mM Hepes [pH 7.0], 150 mM NaCl, 1 mM MnCl2, 1 mM DTT, 0.01% Triton X-100, 0.1 mg/ml BSA; ref 84 (Padi et al.); read-out: IC50 (phosphatase activity of PP2A–B55). The source says: To identify the factor that led to this discrepancy, we first repeated our as ...

As to “Eya3 peptide: Eya3 peptide (residues 62–108) of Padi et al. (RSSNDYTSQMYSAKPYAHILSVPVSETAYPGQTQYQTLQQTQPYAVY; UniProt Q99504 62-108, looked up, fragment)”, the IC50 was 1100 ± 84 nM.
